Data published in publication PMC3344887 (PLoS ONE, 2012).
Several values for one entry are separate records, joined by “and”; a condition that tells them apart may be missing. Identical values can stand only once. Like-named read-outs stand apart in the source and are kept apart here.

What was measured:
healthy subjects [1] = assay: Visual Analog Scales, subjective drug effects, clinical study; format: in vivo, humans; settings: peak change from baseline, mean±SEM, 16 subjects
Experimental: (§1) The washout periods between the sessions were at least 10 days long.
(§2) Identical placebo (lactose) capsules were prepared. […] Drugs were administered without food.
(§3) The psychometric measures included Visual Analog Scales (VAS), [10], the Adjective Mood Rating Scale (AMRS), and 5-Dimensions of Altered States of Consciousness (5D-ASC), [23]. […] The VASs were presented as 100 mm horizontal lines marked “not at all" on the left and “extremely" on the right. The VASs for “closeness to others," “open," and “talkative" were bidirectional (±50 mm). The VASs were administered 4 h before and 0, 0.33, 1, 1.5, 2, 2.5, 3, 3.5, 4, and 5 h after MDMA or placebo administration. […] The AMRS contains subscales for activity, extroversion and introversion, well-being, emotional excitation, anxiety-depression, and dreaminess. The 5D-ASC rating scale measures alterations in mood, perception, experience of self in relation to the environment, and thought disorder. The 5D-ASC rating scale comprises five subscales or dimensions and 11 lower-order scales. The 5D-ASC dimension “oceanic boundlessness" (OB, 27 items) measures derealization and depersonalization associated with positive emotional states, ranging from heightened mood to euphoric exaltation. […] The global ASC score was determined by adding the OB, AED, and VR scores. The 5D-ASC scale was administered 4 h after MDMA or placebo administration.
(§4) Clinical data values were transformed to differences from baseline. Peak effects (Emax) were determined for repeated measures. Emax values were compared using General Linear Models repeated-measures analysis of variance, with drug as within-subject factor, using Statistica 6.0 software (StatSoft, Tulsa, OK). Tukey post hoc comparisons were performed based on significant main effects of treatment. Additional analyses of variance were performed, with period as factor to exclude period effects. Correlation analyses were performed using Pearson’s correlations. The criterion for significance was p<0.05. Mean arterial pressure (MAP) was calculated from diastolic blood pressure and systolic blood pressure using the following formula: MAP = DBP+(SBP - DBP)/3.

healthy subjects [2] = assay: Adjective Mood Rating Scale (AMRS), clinical study; format: in vivo, humans; settings: peak change from baseline, mean±SEM, 16 subjects
Experimental: as §1, §2, §3, §4

healthy subjects [3] = assay: 5-Dimensions of Altered States of Consciousness (5D-ASC), clinical study; format: in vivo, humans; settings: p<0.001
Experimental: as §1, §2, §3

healthy subjects [4] = assay: Circulating plasma catecholamines, clinical study; format: in vivo, humans; settings: peak change from baseline, mean±SEM, 16 subjects
Experimental: as §1, §2
(§5) Plasma concentrations of copeptin were also determined in this study as reported elsewhere. […] No hydrolysis was performed. Thus, the values for HMMA represent the drug concentrations of the non-conjugated metabolite. All blood samples were collected on ice and centrifuged within 10 min at 4°C. The plasma was then stored at –20°C until the analysis.

healthy subjects [5] = assay: Physiologic measures (blood pressure, heart rate, body temperature), clinical study; format: in vivo, humans; settings: peak change from baseline, mean±SEM, 16 subjects
Experimental: as §1, §2
(§6) Physiologic measures were assessed repeatedly 4, 3, 2, and 1 h before and 0, 0.33, 0.66, 1, 1.5, 2, 2.5, 3, 4, 5, and 6 h after MDMA or placebo administration. Heart rate, systolic blood pressure, and diastolic blood pressure were measured using an OMRON M7 blood pressure monitor (OMRON Healthcare Europe, Hoofddorp, The Netherlands). Measures were taken twice per time point with an interval of 1 min, and the average was used for the analysis. Core (tympanic) temperature was assessed using a GENIUS 2 ear thermometer (Tyco Healthcare Group, Watertown, NY). […] Adverse effects were assessed using the List of Complaints (LC), which consists of 66 items that yield a total adverse effects score and reliably measure physical and general discomfort.
as §4

healthy subjects [6] = assay: Adverse effects, List of Complaints, clinical study
Experimental: as §1, §2, §6

clinical = settings: for AUC(0-t): AUC0-6
Experimental: as §2, §5
Cmax and tmax were obtained directly from the observed concentration-time curves. […] Terminal elimination half-life (t 1/2) was calculated using λz and the equation t1/2 = ln2/λz. The area under the plasma concentration-time curve up to 6 h (AUC0-6h) was calculated using the linear trapezoidal rule. The AUC0–∞ was determined by extrapolation of AUC0–6h using λz. The PK parameters were determined using the PK functions for Excel (Microsoft, Redmont, CA, USA). Plasma concentrations were only determined up to 6 h after MDMA administration because the aim of the study was to assess potential changes in MDMA plasma levels while relevant pharmacodynamic effects or MDMA were present.

SERT = SERT (Homo sapiens, UniProt P31645)
Source text: The procedures were adapted from previous studies, [3]. […] This transports the cells through the silicon oil layer to the KOH layer, thereby separating the cells from the buffer, which remains on top of the silicon oil layer. The centrifuge tubes were then transferred to liquid nitrogen. The amount of tracer that remained in the cells was quantified by cutting the frozen centrifuge tube above the KOH/oil interface and putting the tip of the tube with the cell pellet in a scintillation vial that contained 500 µl lysis buffer (0.05 M TRIS-HCl, 50 mM NaCl, 5 mM EDTA, and 1% Nonidet P-40 substitute in water). The samples were then shaken for 1 h on a rotary shaker, and 7 ml of scintillation fluid (Ultimagold, Perkin Elmer, Schwerzenbach, Switzerland) was added. Cell-associated radioactivity was then counted. […] Dose-response curves were generated using 9–11 concentrations of MDMA/MDA. […] All data points were derived from at least three independent experiments, each assayed in triplicate. The data were fit by non-linear regression, and EC50 and Emax values were calculated using Prism (GraphPad, San Diego, CA).

NE transporter [7] = settings: cited from earlier work
DAT [8] = settings: cited from earlier work
NE transporter [9] = settings: read-out: Ki, NE transporter; rat cortex synaptosomes; cited from earlier work
[10] = cited from earlier work; for Mean plasma Cmax: healthy volunteers
patients = settings: 60-120 mg/day; cited from earlier work
DAT [11] = molecular target: T1, DAT (Homo sapiens, UniProt Q01959); assay: cell-based
NET [12] = molecular target: T2, NET (Homo sapiens, UniProt P23975); assay: Radioligand binding, [3H]-nisoxetine, HEK 293 membranes; set-up: expressed in transfected cells; host or cells: HEK 293 cells (Invitrogen), stably transfected
DAT [13] = molecular target: T1, DAT; assay: Radioligand binding, [3H]-WIN35,428, HEK 293 membranes; set-up: expressed in transfected cells; host or cells: HEK 293 cells (Invitrogen), stably transfected
NET [14] = molecular target: T2, NET; assay: [3H]-NE uptake inhibition, method A (silicon oil); format: cell-based; set-up: expressed in transfected cells; host or cells: HEK 293 cells (Invitrogen), stably transfected
NCCc1c[nH]c2ccc(O)cc12 = assay: cells, lysate or membranes; settings: other: method A
[15] = substrate: NCCc1ccc(O)c(O)c1; assay: cells, lysate or membranes; settings: other: method A
[16] = Duloxetine-MDMA session, mean±SEM, n=16
[17] = Placebo-MDMA session, mean±SEM, n=16
[18] = duloxetine-MDMA vs placebo-MDMA

T2 sequence (P23975 whole entry): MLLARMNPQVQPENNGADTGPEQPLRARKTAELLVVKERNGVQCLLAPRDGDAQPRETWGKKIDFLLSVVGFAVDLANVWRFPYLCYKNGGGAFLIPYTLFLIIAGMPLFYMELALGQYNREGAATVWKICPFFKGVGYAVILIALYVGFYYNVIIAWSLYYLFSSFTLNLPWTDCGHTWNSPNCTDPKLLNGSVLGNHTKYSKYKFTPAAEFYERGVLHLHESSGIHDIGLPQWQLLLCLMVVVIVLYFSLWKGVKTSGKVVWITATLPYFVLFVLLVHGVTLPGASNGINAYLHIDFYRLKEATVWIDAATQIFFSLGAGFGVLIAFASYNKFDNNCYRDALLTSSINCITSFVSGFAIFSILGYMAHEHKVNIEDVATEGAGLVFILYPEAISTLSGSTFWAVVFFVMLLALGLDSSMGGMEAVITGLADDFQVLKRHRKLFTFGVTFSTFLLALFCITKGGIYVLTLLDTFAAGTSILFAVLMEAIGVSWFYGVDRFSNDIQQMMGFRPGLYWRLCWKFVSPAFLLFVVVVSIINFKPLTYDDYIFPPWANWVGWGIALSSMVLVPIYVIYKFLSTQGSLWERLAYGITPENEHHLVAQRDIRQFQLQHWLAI
SERT, sequence (P31645 whole entry): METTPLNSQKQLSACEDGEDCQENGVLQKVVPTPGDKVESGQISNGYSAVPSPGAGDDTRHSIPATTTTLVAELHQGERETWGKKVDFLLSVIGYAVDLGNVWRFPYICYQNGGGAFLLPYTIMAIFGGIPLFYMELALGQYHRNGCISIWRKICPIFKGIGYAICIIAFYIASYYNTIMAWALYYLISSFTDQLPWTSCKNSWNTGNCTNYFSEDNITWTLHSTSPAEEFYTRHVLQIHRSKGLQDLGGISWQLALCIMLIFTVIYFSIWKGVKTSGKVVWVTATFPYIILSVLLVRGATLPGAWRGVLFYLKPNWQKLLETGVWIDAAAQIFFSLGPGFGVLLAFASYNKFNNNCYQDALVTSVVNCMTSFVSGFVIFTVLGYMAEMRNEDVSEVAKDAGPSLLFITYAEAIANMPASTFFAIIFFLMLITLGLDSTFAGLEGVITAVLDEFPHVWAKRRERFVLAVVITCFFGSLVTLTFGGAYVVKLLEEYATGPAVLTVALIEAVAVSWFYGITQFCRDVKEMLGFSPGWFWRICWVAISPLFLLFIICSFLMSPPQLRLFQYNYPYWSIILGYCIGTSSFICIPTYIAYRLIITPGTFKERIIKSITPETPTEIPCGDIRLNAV

CNCC[C@H](Oc1cccc2ccccc12)c1cccs1 [Duloxetine]
VAS Any drug effect, Emax (healthy subjects [1]): 6.00±2.52 | VAS Closeness, Emax (healthy subjects [1]): 0.00±0.00 | VAS Drug high, Emax (healthy subjects [1]): 4.81±2.93 | VAS Drug liking, Emax (healthy subjects [1]): 7.56±4.43 | VAS Good drug effect, Emax (healthy subjects [1]): 8.75±5.01 | VAS Open, Emax (healthy subjects [1]): 0.38±0.38 | VAS Stimulated, Emax (healthy subjects [1]): 5.13±2.45 | VAS Talkative, Emax (healthy subjects [1]): 0.31±0.31 | AMRS Activity, Emin (healthy subjects [2]): −2.69±0.69 | AMRS Dreaminess, Emax (healthy subjects [2]): 1.35±0.35 | AMRS Emotional excitation, Emax (healthy subjects [2]): 0.69±0.27 | AMRS Extroversion, Emax (healthy subjects [2]): 0.38±0.16 | AMRS Introversion, Emax (healthy subjects [2]): 1.13±0.30 | AMRS Well-being, Emax (healthy subjects [2]): 0.38±0.16 | Effect on MDMA's effects on the total ASC score (healthy subjects [3]): robustly reduced | Circulating Epinephrine, Emax (healthy subjects [4]): 0.46 ± 0.10 nM | Circulating Norepinephrine, Emax (healthy subjects [4]): -0.18 ± 0.07 nM | DPB, Emax (healthy subjects [5]; diastolic blood pressure): 6.00±0.97 mm Hg | MAP, Emax (healthy subjects [5]; mean arterial pressure): 5.11±1.01 mm Hg | Heart rate, Emax (healthy subjects [5]): 5.06±1.27 beats/min | SBP, Emax (healthy subjects [5]; systolic blood pressure): 6.19±1.42 mm Hg | Body temperature, Emax (healthy subjects [5]; tympanic): 0.19±0.04 °C | List of Complaints (total score), Acute adverse effects (healthy subjects [6]; at 3 h, change from baseline, mean±SEM, 16 subjects): −1.81±1.09 | List of Complaints (total score), Sub-acute adverse effects (healthy subjects [6]; at 24 h, change from baseline, mean±SEM, 16 subjects): −2.88±1.35 | Adverse effects produced (healthy subjects [6]; clinical study): daytime somnolence and moderate insomnia | Cmax (clinical; human, in vivo): 112 ± 7.06 ng/mL | concentration at 120 min (clinical; human, in vivo): 314 ± 2.5 nM | Cmax (clinical; human, in vivo, 120 mg): 107 ± 10.2 ng/mL | AUC(0-t) (clinical; human, in vivo): 800 ± 74.4 ng·h/mL | AUC(0-inf) (clinical; human, in vivo, AUC(0-∞)): 1960 ± 230 ng·h/mL | Cmax (clinical; human, in vivo, Plasma concentration Cmax, text of b61): 112 ng/mL and 380 nM | half-life (clinical; human, in vivo, T1/2): 11 ± 1.04 h | Tmax (clinical; human, in vivo, Tmax): 5.14 ± 0.29 h | Effect on MDMA- and MDA-induced 5-HT release (SERT): completely blocked | Block of thyramine-induced increases in systolic blood pressure (NE transporter [7]; 60 mg for 14 days): not able to block | Suppression of blood pressure increase due to thyramine (NE transporter [7]; dose of 80-120 mg): effective in suppressing | Lower potency at DAT compared with SERT and NET (DAT [8]): 10- to 100 fold | Ki (NE transporter [9]): 0.0021 µM | Mean Cmax at steady state ([10]; 40 mg once daily): 35 ng/mL | Trough level at 24h at steady state ([10]; 40 mg once daily): approximately 10 ng/mL | Increase of AUC ([10]; after pretreatment with paroxetine): 1.6 fold | Elimination half-life [10]: 12 h | Tmax [10]: 6 h | Mean Cmax, population PK ([10]; daily 60 mg): 30 to 60 ng/mL | Mean trough level at 24h, population PK ([10]; daily 60 mg): ~25 ng/mL | Peak level at steady state ([10]; patients, daily 120 mg): 100 ng/mL | Trough level at steady state ([10]; patients, daily 120 mg): 50 ng/mL | Mean plasma Cmax ([10]; single oral dose 30 mg): 22 ng/mL | Mean plasma Cmax ([10]; single oral dose 60 mg): 44 ng/mL | Mean plasma Cmax ([10]; single oral dose 90 mg): 61 ng/mL | Incidence of constipation (patients): 11% | Incidence of decreased appetite (patients): 8% | Incidence of dizziness (patients): 9-11% | Incidence of dry mouth (patients): 15-18% | Incidence of fatigue (patients): 14% | Incidence of headache (patients): 20% | Incidence of insomnia (patients): 11-15% | Incidence of nausea (patients): 20-29% | Incidence of sweating (patients): 6%

CNC(C)Cc1ccc(O)c(OC)c1 (stereo not drawn) [HMMA, 4-hydroxy-3-methoxymethamphetamine]
Cmax (clinical; Duloxetine-MDMA session (duloxetine 120 mg 16 and 4 h before MDMA 125 mg), plasma, mean±SEM, n=16): 2.00 ± 0.38 ng/mL | AUC0-6 (clinical; [16]): 8.14 ± 1.45 ng·h/mL | Tmax (clinical; [16]): 1.89 ± 0.25 h | Cmax (clinical; Placebo-MDMA session (MDMA 125 mg), plasma, mean±SEM, n=16): 3.36 ± 0.34 ng/mL | AUC0-6 (clinical; [17]): 13.57 ± 1.58 ng·h/mL | Tmax (clinical; [17]): 1.84 ± 0.17 h | Decrease in AUC0-6h by duloxetine (clinical; [18]): 48±6% | Decrease in Cmax by duloxetine (clinical; [18]): 46±6%

CC(N)Cc1ccc2c(c1)OCO2 (stereo not drawn) [MDA, 3,4-methylenedioxyamphetamine]
Cmax (clinical; human, in vivo): 10.7 ± 0.72 ng/mL | Cmax (clinical; human, in vivo, 125 mg): 11.8 ± 0.7 ng/mL | AUC(0-t) (clinical; human, in vivo): 46.6 ± 3.02 ng·h/mL | Tmax (clinical; human, in vivo, Tmax): 5.5 ± 0.22 h | Ki (DAT [11]): 11 µM | Ki (NET [12]): 17.8 ± 4.06 µM | Ki (DAT [13]): 26.4 ± 4.24 µM | Ki (NET [14]): 0.341 µM

CNCCCN1c2ccccc2CCc2ccccc21 [desipramine]
Block of thyramine-induced SBP responses (NE transporter [7]; no reference given): completely blocked

human SERT (Homo sapiens)
Km (NCCc1c[nH]c2ccc(O)cc12): 0.489 ± 0.147 µM

B1: human DAT (Homo sapiens) (protein)
chain: MSKSKCSVGLMSSVVAPAKEPNAVGPKEVELILVKEQNGVQLTSSTLTNPRQSPVEAQDRETWGKKIDFLLSVIGFAVDLANVWRFPYLCYKNGGGAFLVPYLLFMVIAGMPLFYMELALGQFNREGAAGVWKICPILKGVGFTVILISLYVGFFYNVIIAWALHYLFSSFTTELPWIHCNNSWNSPNCSDAHPGDSSGDSSGLNDTFGTTPAAEYFERGVLHLHQSHGIDDLGPPRWQLTACLVLVIVLLYFSLWKGVKTSGKVVWITATMPYVVLTALLLRGVTLPGAIDGIRAYLSVDFYRLCEASVWIDAATQVCFSLGVGFGVLIAFSSYNKFTNNCYRDAIVTTSINSLTSFSSGFVVFSFLGYMAQKHSVPIGDVAKDGPGLIFIIYPEAIATLPLSSAWAVVFFIMLLTLGIDSAMGGMESVITGLIDEFQLLHRHRELFTLFIVLATFLLSLFCVTNGGIYVFTLLDHFAAGTSILFGVLIEAIGVAWFYGVGQFSDDIQQMTGQRPSLYWRLCWKLVSPCFLLFVVVVSIVTFRPPHYGAYIFPDWANALGWVIATSSMAMVPIYAAYKFCSLPGSFREKLAYAIAPEKDRELVDRGEVRQFTLRHWLKV
Km [15]: 1.707 ± 0.297 µM
